According to publication PMC11845477, “Exploring the principles behind antibiotics with limited resistance” (Nature Communications, 2025):
Where a SMILES comes first, the peptide text is derived from it. Bridges are numbered along the chain shown (N, C = ends). [ ]: non-standard residue; d: D form. The star is where a group is joined. X1 = NC[C@@H](CC(=O)*)c1cccc(Cl)c1; Dab = NCC[C@H](N)C(=O)O; Dap = NC[C@H](N)C(=O)O

How the values were obtained:
[1] = test system: P. aeruginosa ATCC BAA-3107 (SEN) and P. aeruginosa LESB58 (MDR); experiment: Adaptive laboratory evolution (ALE), relative MIC of evolved lines; assay type: cell-based, Pseudomonas aeruginosa
Outline: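 Ten parallel populations per antibiotic–ancestor pair were evolved in MHB at 37 °C, starting near 50% growth-inhibiting drug. Every 72 h they were passaged into 0.5–2.5× increasing concentrations, keeping the highest-drug well with OD600 > 0.2.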

[2] = test system: E. coli ATCC 25922 (SEN) and E. coli NCTC13846 (MDR); experiment: microbe, parasite or virus in culture; assay type: cell-based, Escherichia coli; details: for MIC: across three biological replicates
Outline: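 Cation-adj. MHB2 (not for SCH79797); 11–16-step dilution series; 5 × 10^5 cells/mL; 37 °C, shaking, 18 h; duplicates. Growth by OD600; MIC at OD600 < 0.05. Relative MIC: evolved vs ancestor.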

[3] = E. coli ATCC 25922 (EC-SEN), ancestor strain, sheet fig 2a
[4] = E. coli NCTC 13846 (EC-MDR), ancestor strain, sheet fig 2a
[5] = Escherichia coli ATCC 25922 (EC-SEN)
[6] = Escherichia coli NCTC 13846 (EC-MDR)

Compound: CC(C)C[C@@H]1NC(=O)[C@@H](Cc2ccccc2)NC(=O)[C@H](CCN)NC(=O)[C@@H](NC(=O)[C@H](CN)NC(=O)[C@@H](NC(=O)C[C@H](CN)c2cccc(Cl)c2)[C@@H](C)O)CCNC(=O)[C@H]([C@@H](C)O)NC(=O)[C@H](CCN)NC(=O)[C@H](CCN)NC1=O [SPR206] (X1-T[Dap][Dab][Dab][dF]L[Dab][Dab]T; lactam 3-C (inferred); N-terminus assumed)
- Relative MIC ([1]; ALE, P. aeruginosa ATCC BAA 3107 (PA-SEN), evolved line 1): 16
- Relative MIC ([1]; ALE, P. aeruginosa ATCC BAA 3107 (PA-SEN), evolved line 2): 32
- Relative MIC ([1]; ALE, P. aeruginosa ATCC BAA 3107 (PA-SEN), evolved line 4): 16
- Relative MIC ([1]; ALE, P. aeruginosa ATCC BAA 3107 (PA-SEN), evolved line 5): 16
- Relative MIC ([1]; ALE, P. aeruginosa ATCC BAA 3107 (PA-SEN), evolved line 8): 8
- Relative MIC ([1]; ALE, P. aeruginosa ATCC BAA 3107 (PA-SEN), evolved line 9): 32
- Relative MIC ([1]; ALE, P. aeruginosa ATCC BAA 3107 (PA-SEN), evolved line 10): 2
- Relative MIC ([1]; PA-MDR (LESB 58), evolved line 1, evolved vs ancestor): 16
- Relative MIC ([1]; PA-MDR (LESB 58), evolved line 2, evolved vs ancestor): 16
- Relative MIC ([1]; PA-MDR (LESB 58), evolved line 3, evolved vs ancestor): 16
- Relative MIC ([1]; PA-MDR (LESB 58), evolved line 4, evolved vs ancestor): 8
- Relative MIC ([1]; PA-MDR (LESB 58), evolved line 5, evolved vs ancestor): 16
- Relative MIC ([1]; PA-MDR (LESB 58), evolved line 6, evolved vs ancestor): 32
- Relative MIC ([1]; PA-MDR (LESB 58), evolved line 7, evolved vs ancestor): 16
- Relative MIC ([1]; PA-MDR (LESB 58), evolved line 8, evolved vs ancestor): 4
- Relative MIC ([1]; PA-MDR (LESB 58), evolved line 9, evolved vs ancestor): 16
- Relative MIC ([1]; PA-MDR (LESB 58), evolved line 10, evolved vs ancestor): 32
- MIC of evolved line ([1]; PA-MDR (LESB 58), evolved line 4): 32 µg/mL
- MIC of evolved line ([1]; PA-MDR (LESB 58), evolved line 5): 64 µg/mL
- MIC of evolved line ([1]; PA-MDR (LESB 58), evolved line 6): 128 µg/mL
- MIC of evolved line ([1]; PA-MDR (LESB 58), evolved line 7): 64 µg/mL
- MIC of evolved line ([1]; PA-MDR (LESB 58), evolved line 8): 16 µg/mL
- MIC of evolved line ([1]; PA-MDR (LESB 58), evolved line 9): 64 µg/mL
- MIC of evolved line ([1]; PA-MDR (LESB 58), evolved line 10): 128 µg/mL
- Relative MIC (log10) ([1]; PA-MDR (Pseudomonas aeruginosa LESB 58), evolved line 1): 1.204 log10
- Relative MIC (log10) ([1]; PA-MDR (Pseudomonas aeruginosa LESB 58), evolved line 6): 1.505 log10
- MIC of evolved line ([1]; PA-MDR LESB 58, evolved line 1): 64 µg/mL
- MIC of evolved line ([1]; PA-MDR LESB 58, evolved line 2): 64 µg/mL
- MIC of evolved line ([1]; PA-MDR LESB 58, evolved line 3): 64 µg/mL
- Relative MIC (log10) ([1]; PA-MDR, Pseudomonas aeruginosa LESB 58, evolved line 9): 1.204 log10
- Relative MIC (log10) ([1]; PA-MDR, Pseudomonas aeruginosa LESB 58, evolved line 10): 1.505 log10
- Relative MIC (log10) ([1]; PA-MDR, Pseudomonas aeruginosa LESB 58, evolved line 3): 1.204 log10
- Relative MIC ([1]; PA-SEN (ATCC BAA 3107), evolved line 1, evolved vs ancestor): 16
- Relative MIC ([1]; PA-SEN (ATCC BAA 3107), evolved line 2, evolved vs ancestor): 32
- Relative MIC ([1]; PA-SEN (ATCC BAA 3107), evolved line 4, evolved vs ancestor): 16
- Relative MIC ([1]; PA-SEN (ATCC BAA 3107), evolved line 5, evolved vs ancestor): 16
- Relative MIC ([1]; PA-SEN (ATCC BAA 3107), evolved line 8, evolved vs ancestor): 8
- Relative MIC ([1]; PA-SEN (ATCC BAA 3107), evolved line 9, evolved vs ancestor): 32
- Relative MIC ([1]; PA-SEN (ATCC BAA 3107), evolved line 10, evolved vs ancestor): 2
- MIC of evolved line ([1]; PA-SEN (ATCC BAA 3107), evolved line 2): 32 µg/mL
- MIC of evolved line ([1]; PA-SEN (ATCC BAA 3107), evolved line 4): 16 µg/mL
- MIC of evolved line ([1]; PA-SEN (ATCC BAA 3107), evolved line 5): 16 µg/mL
- MIC of evolved line ([1]; PA-SEN (ATCC BAA 3107), evolved line 8): 8 µg/mL
- MIC of evolved line ([1]; PA-SEN (ATCC BAA 3107), evolved line 9): 32 µg/mL
- MIC of evolved line ([1]; PA-SEN (ATCC BAA 3107), evolved line 10): 2 µg/mL
- MIC of evolved line ([1]; PA-SEN ATCC BAA 3107, evolved line 1): 16 µg/mL
- Relative MIC (log10) ([1]; PA-SEN, Pseudomonas aeruginosa ATCC BAA 3107, evolved line 1): 1.204 log10
- Relative MIC (log10) ([1]; PA-SEN, Pseudomonas aeruginosa ATCC BAA 3107, evolved line 2): 1.505 log10
- Relative MIC (log10) ([1]; PA-SEN, Pseudomonas aeruginosa ATCC BAA 3107, evolved line 4): 1.204 log10
- Relative MIC (log10) ([1]; PA-SEN, Pseudomonas aeruginosa ATCC BAA 3107, evolved line 5): 1.204 log10
- Relative MIC (log10) ([1]; PA-SEN, Pseudomonas aeruginosa ATCC BAA 3107, evolved line 9): 1.505 log10
- Relative MIC ([1]; Pseudomonas aeruginosa ATCC BAA 3107 (PA-SEN), evolved line 1): 16
- Relative MIC ([1]; Pseudomonas aeruginosa ATCC BAA 3107 (PA-SEN), evolved line 2): 32
- Relative MIC ([1]; Pseudomonas aeruginosa ATCC BAA 3107 (PA-SEN), evolved line 4): 16
- Relative MIC ([1]; Pseudomonas aeruginosa ATCC BAA 3107 (PA-SEN), evolved line 5): 16
- Relative MIC ([1]; Pseudomonas aeruginosa ATCC BAA 3107 (PA-SEN), evolved line 8): 8
- Relative MIC ([1]; Pseudomonas aeruginosa ATCC BAA 3107 (PA-SEN), evolved line 9): 32
- Relative MIC ([1]; Pseudomonas aeruginosa ATCC BAA 3107 (PA-SEN), evolved line 10): 2
- Relative MIC ([1]; Pseudomonas aeruginosa LESB 58 (PA-MDR), evolved line 1): 16
- Relative MIC ([1]; Pseudomonas aeruginosa LESB 58 (PA-MDR), evolved line 2): 16
- Relative MIC ([1]; Pseudomonas aeruginosa LESB 58 (PA-MDR), evolved line 3): 16
- Relative MIC ([1]; Pseudomonas aeruginosa LESB 58 (PA-MDR), evolved line 4): 8
- Relative MIC ([1]; Pseudomonas aeruginosa LESB 58 (PA-MDR), evolved line 5): 16
- Relative MIC ([1]; Pseudomonas aeruginosa LESB 58 (PA-MDR), evolved line 6): 32
- Relative MIC ([1]; Pseudomonas aeruginosa LESB 58 (PA-MDR), evolved line 7): 16
- Relative MIC ([1]; Pseudomonas aeruginosa LESB 58 (PA-MDR), evolved line 8): 4
- Relative MIC ([1]; Pseudomonas aeruginosa LESB 58 (PA-MDR), evolved line 9): 16
- Relative MIC ([1]; Pseudomonas aeruginosa LESB 58 (PA-MDR), evolved line 10): 32
- MIC of ancestor ([2]; E. coli ATCC 25922 (EC-SEN), ancestor strain): 0.25 µg/mL
- MIC of ancestor [2, 3]: 0.25 µg/mL
- MIC of ancestor ([2]; E. coli NCTC 13846 (EC-MDR), ancestor strain): 4 µg/mL
- MIC of ancestor [2, 4]: 4 µg/mL
- MIC [2, 5]: 0.25 µg/mL
- MIC [2, 6]: 4 µg/mL

Compound: POL7306
- Relative MIC ([1]; ALE, Pseudomonas aeruginosa ATCC BAA 3107 (PA-SEN), evolved line 1): 2
- Relative MIC ([1]; ALE, Pseudomonas aeruginosa ATCC BAA 3107 (PA-SEN), evolved line 2): 2
- Relative MIC ([1]; ALE, Pseudomonas aeruginosa ATCC BAA 3107 (PA-SEN), evolved line 3): 2
- Relative MIC ([1]; ALE, Pseudomonas aeruginosa ATCC BAA 3107 (PA-SEN), evolved line 4): 2
- Relative MIC ([1]; ALE, Pseudomonas aeruginosa ATCC BAA 3107 (PA-SEN), evolved line 6): 2
- Relative MIC ([1]; ALE, Pseudomonas aeruginosa ATCC BAA 3107 (PA-SEN), evolved line 8): 2
- MIC [2, 5]: 1 µg/mL
- MIC [2, 6]: 4 µg/mL

Compound: polymyxin-B
- MIC of evolved line ([1]; PA-MDR (P. aeruginosa LESB 58), evolved line 4 of the given antibiotic): 4 µg/mL
- MIC of evolved line ([1]; PA-MDR (P. aeruginosa LESB 58), evolved line 5 of the given antibiotic): 4 µg/mL
- MIC of evolved line ([1]; PA-MDR (P. aeruginosa LESB 58), evolved line 7 of the given antibiotic): 32 µg/mL
- MIC of evolved line ([1]; PA-MDR (P. aeruginosa LESB 58), evolved line 8 of the given antibiotic): 8 µg/mL
- MIC of evolved line ([1]; PA-MDR (P. aeruginosa LESB 58), evolved line 10 of the given antibiotic): 16 µg/mL
- MIC of evolved line ([1]; PA-MDR LESB 58, evolved line 1): 64 µg/mL
- MIC of evolved line ([1]; PA-MDR LESB 58, evolved line 2): 256 µg/mL
- MIC of evolved line ([1]; PA-MDR LESB 58, evolved line 3): 16 µg/mL
- MIC of evolved line ([1]; PA-SEN (P. aeruginosa ATCC BAA 3107), evolved line 1 of the given antibiotic): 32 µg/mL
- MIC of evolved line ([1]; PA-SEN (P. aeruginosa ATCC BAA 3107), evolved line 4 of the given antibiotic): 32 µg/mL
- MIC of evolved line ([1]; PA-SEN (P. aeruginosa ATCC BAA 3107), evolved line 5 of the given antibiotic): 32 µg/mL
- MIC of evolved line ([1]; PA-SEN (P. aeruginosa ATCC BAA 3107), evolved line 6 of the given antibiotic): 4 µg/mL
- MIC of evolved line ([1]; PA-SEN (P. aeruginosa ATCC BAA 3107), evolved line 7 of the given antibiotic): 16 µg/mL
- MIC of evolved line ([1]; PA-SEN (P. aeruginosa ATCC BAA 3107), evolved line 8 of the given antibiotic): 16 µg/mL
- MIC of evolved line ([1]; PA-SEN (P. aeruginosa ATCC BAA 3107), evolved line 9 of the given antibiotic): 4 µg/mL
- MIC of evolved line ([1]; PA-SEN (P. aeruginosa ATCC BAA 3107), evolved line 10 of the given antibiotic): 4 µg/mL
- MIC of ancestor [2, 3]: 1 µg/mL
- MIC of ancestor [2, 4]: 4 µg/mL
- MIC of ancestor ([2]; Escherichia coli NCTC 13846 (EC-MDR), ancestor): 4 µg/mL
- MIC of ancestor ([2]; ancestor EC-SEN (Escherichia coli ATCC 25922)): 1 µg/mL
